Laboratory results from article PMC10215302 (Antibiotics, 2023).
Like-named read-outs stand apart in the source and are kept apart here.

Columns and labels:
[1] = system: S. aureus derivative strains; conditions: for MIC: daptomycin-selected derivative strains without WalK mutations (all except SA0422), susceptible
[2] = system: S. aureus ATCC 29213
[3] = system: S. aureus SA0085; conditions: for MIC values: Table S1: SA0085 Abf (passages on antibiotic-free media)
[4] = system: S. aureus SA0422
[5] = system: S. aureus SA0077; conditions: for MIC values: Table S1: SA0077 Abf (passages on antibiotic-free media)
[6] = system: S. aureus SA0736
[7] = system: S. aureus RN4220
[8] = ATCC 29213, selecting agent DAP, passage 5
[9] = ATCC 29213, selecting agent DAP, passage 20
[10] = ATCC 29213, selecting agent DAP, passage 40
[11] = ATCC 29213, selecting agent VAN, passage 0
[12] = ATCC 29213, selecting agent VAN, passage 5
[13] = ATCC 29213, selecting agent VAN, passage 20
[14] = ATCC 29213, selecting agent VAN, passage 40
[15] = SA0085, selecting agent DAP, passage 5
[16] = SA0085, selecting agent DAP, passage 40
[17] = SA0085, selecting agent VAN, passage 0
[18] = SA0085, selecting agent VAN, passage 5
[19] = SA0085, selecting agent VAN, passage 20
[20] = SA0085, selecting agent VAN, passage 40
[21] = SA0422, selecting agent DAP, passage 5
[22] = SA0422, selecting agent DAP, passage 20
[23] = SA0422, selecting agent DAP, passage 40
[24] = SA0422, selecting agent VAN, passage 0
[25] = SA0422, selecting agent VAN, passage 5
[26] = SA0422, selecting agent VAN, passage 20
[27] = SA0422, selecting agent VAN, passage 40
[28] = SA0077, selecting agent DAP, passage 20
[29] = SA0077, selecting agent DAP, passage 40
[30] = SA0077, selecting agent VAN, passage 0
[31] = SA0077, selecting agent VAN, passage 5
[32] = SA0077, selecting agent VAN, passage 20
[33] = SA0077, selecting agent VAN, passage 40
[34] = SA0736, selecting agent DAP, passage 5
[35] = SA0736, selecting agent DAP, passage 20
[36] = SA0736, selecting agent DAP, passage 40Y (yellow colonies)
[37] = SA0736, selecting agent VAN, passage 0
[38] = SA0736, selecting agent VAN, passage 5
[39] = SA0736, selecting agent VAN, passage 20
[40] = SA0736, selecting agent VAN, passage 40
[41] = Table S1: SA0736 DAP-W (40 passages on daptomycin, white colonies)
[42] = Table S1: SA0736 DAP-Y (40 passages on daptomycin, yellow colonies)
[43] = Table S1: RN4220 ∆ (strain with deletion in SACOL1927)
[44] = SA0085, selecting agent DAP, passage 20
[45] = SA0736, selecting agent DAP, passage 40W (white colonies)

Substance: dalbavancin
- MIC [1]: ≤ 0.125 µg/mL
- MIC [2, 8]: 0.03 µg/mL
- MIC [2, 9]: 0.06 µg/mL
- MIC [2, 10]: 0.125 µg/mL
- MIC [2, 11]: <0.016 µg/mL
- MIC [2, 12]: <0.016 µg/mL
- MIC [2, 13]: <0.016 µg/mL
- MIC [2, 14]: 2 µg/mL
- MIC [3, 15]: <0.016 µg/mL
- MIC [3, 16]: 0.125 µg/mL
- MIC [3, 17]: <0.016 µg/mL
- MIC [3, 18]: 0.06 µg/mL
- MIC [3, 19]: 0.5 µg/mL
- MIC [3, 20]: 0.25 µg/mL
- MIC values [3]: 0.03 µg/mL
- MIC [4, 21]: 0.06 µg/mL
- MIC [4, 22]: 0.25 µg/mL
- MIC [4, 23]: 0.25 µg/mL
- MIC [4, 24]: 0.03 µg/mL
- MIC [4, 25]: 0.125 µg/mL
- MIC [4, 26]: 0.5 µg/mL
- MIC [4, 27]: 1 µg/mL
- MIC ([5]; SA0077, selecting agent DAP, passage 5): <0.03 µg/mL
- MIC [5, 28]: 0.125 µg/mL
- MIC [5, 29]: 0.125 µg/mL
- MIC [5, 30]: 0.03 µg/mL
- MIC [5, 31]: 0.25 µg/mL
- MIC [5, 32]: 1 µg/mL
- MIC [5, 33]: 2 µg/mL
- MIC values [5]: 0.03 µg/mL
- MIC [6, 34]: 0.03 µg/mL
- MIC [6, 35]: 0.25 µg/mL
- MIC [6, 36]: 0.5 µg/mL
- MIC [6, 37]: 0.03 µg/mL
- MIC [6, 38]: 0.125 µg/mL
- MIC [6, 39]: 1 µg/mL
- MIC [6, 40]: 1 µg/mL
- MIC values [6, 41]: 0.5 µg/mL
- MIC values [6, 42]: 0.5 µg/mL
- MIC values ([7]; Table S1: RN4220 WT): 0.03 µg/mL
- MIC values [7, 43]: 0.03 µg/mL

Substance: telavancin [TLV]
- MIC [1]: ≤ 0.125 µg/mL
- MIC by the end of daptomycin selection ([1]; derivatives, end of daptomycin selection): 0.125 to 0.25 µg/mL
- MIC [2, 8]: <0.03 µg/mL
- MIC [2, 9]: 0.125 µg/mL
- MIC [2, 10]: 0.25 µg/mL
- MIC [2, 11]: <0.03 µg/mL
- MIC [2, 12]: <0.03 µg/mL
- MIC [2, 13]: 0.125 µg/mL
- MIC [2, 14]: 0.5 µg/mL
- MIC [3, 15]: 0.06 µg/mL
- MIC [3, 44]: 0.06 µg/mL
- MIC [3, 16]: 0.25 µg/mL
- MIC [3, 17]: 0.06 µg/mL
- MIC [3, 18]: 0.06 µg/mL
- MIC [3, 19]: 0.25 µg/mL
- MIC [3, 20]: 0.25 µg/mL
- MIC values [3]: 0.06 µg/mL
- MIC [4, 21]: 0.125 µg/mL
- MIC [4, 22]: 0.25 µg/mL
- MIC [4, 23]: 0.25 µg/mL
- MIC [4, 24]: 0.125 µg/mL
- MIC [4, 25]: 0.25 µg/mL
- MIC [4, 26]: 0.5 µg/mL
- MIC [4, 27]: 1 µg/mL
- MIC [5, 28]: 0.125 µg/mL
- MIC [5, 29]: 0.125 µg/mL
- MIC [5, 30]: 0.125 µg/mL
- MIC [5, 31]: 0.06 µg/mL
- MIC [5, 32]: 0.5 µg/mL
- MIC [5, 33]: 1 µg/mL
- MIC values [5]: 0.03 µg/mL
- MIC [6, 34]: 0.125 µg/mL
- MIC [6, 35]: 0.125 µg/mL
- MIC [6, 45]: 0.125 µg/mL
- MIC [6, 36]: 0.125 µg/mL
- MIC [6, 38]: 0.25 µg/mL
- MIC [6, 39]: 0.5 µg/mL
- MIC [6, 40]: 0.5 µg/mL
- MIC values [6, 41]: .125 µg/mL
- MIC values [6, 42]: .125 µg/mL
- MIC values ([7]; Table S1: RN4220 WT): 0.06 µg/mL
- MIC values [7, 43]: 0.06 µg/mL

Substance: teicoplanin [TEC]
- MIC [2, 8]: 0.5 µg/mL
- MIC [2, 9]: 2 µg/mL
- MIC [2, 10]: 4 µg/mL
- MIC [2, 11]: 0.06 µg/mL
- MIC [2, 12]: 0.06 µg/mL
- MIC [2, 13]: 2 µg/mL
- MIC [2, 14]: 8 µg/mL
- MIC [3, 15]: 0.125 µg/mL
- MIC [3, 44]: 8 µg/mL
- MIC [3, 16]: 8 µg/mL
- MIC [3, 17]: 0.125 µg/mL
- MIC [3, 18]: 1 µg/mL
- MIC [3, 19]: 2 µg/mL
- MIC [3, 20]: 8 µg/mL
- MIC values [3]: .125 µg/mL
- MIC [4, 21]: 0.25 µg/mL
- MIC [4, 22]: 1 µg/mL
- MIC [4, 23]: 1 µg/mL
- MIC [4, 24]: 0.5 µg/mL
- MIC [4, 25]: 2 µg/mL
- MIC [4, 26]: 4 µg/mL
- MIC [4, 27]: 4 µg/mL
- MIC [5, 28]: 0.25 µg/mL
- MIC [5, 29]: 0.25 µg/mL
- MIC [5, 30]: 0.25 µg/mL
- MIC [5, 31]: 8 µg/mL
- MIC [5, 32]: 8 µg/mL
- MIC [5, 33]: 8 µg/mL
- MIC values [5]: .125 µg/mL
- MIC [6, 34]: 0.25 µg/mL
- MIC [6, 35]: 8 µg/mL
- MIC [6, 45]: 8 µg/mL
- MIC [6, 36]: 8 µg/mL
- MIC [6, 37]: 0.25 µg/mL
- MIC [6, 38]: 4 µg/mL
- MIC [6, 40]: 8 µg/mL
- MIC values [6, 41]: 8 µg/mL
- MIC values [6, 42]: 8 µg/mL
- MIC values ([7]; Table S1: RN4220 WT): 0.25 µg/mL
- MIC values [7, 43]: 0.25 µg/mL
